In PubChem BioAssay (NCI) one finds TGI data, which are given here for eight molecules.

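Briefly, cells in 96-well plates were exposed to five compound concentrations for 48 h, and endpoints were estimated by linear interpolation. TGI: total growth inhibition.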 A value given as a limit tells only on which side of the number the result lay.

Among the test systems are MOLT-4 leukemia; NCI-H23 lung; SF-295 CNS; SK-OV-3 ovarian; OVCAR-8 ovarian; T-47D breast; SNB-19 CNS; UACC-257 melanoma; SW-620 colon; OVCAR-5 ovarian; BT-549 breast; DU-145 prostate; NCI/ADR-RES ovarian; MALME-3M melanoma; HOP-92 NSCLC; 786-0 renal; COLO 205 colon; RPMI-8226 leukemia; NCI-H522 lung.
Experiment in all cases: NCI-60 cell line screen, 48 h

Take `c1ccc2c(-c3csc(-c4c[nH]c5ccccc45)n3)c[nH]c2c1`: the TGI in the experiment on MOLT-4 leukemia was 41.4 µM; with NCI-H23 lung, greater than 100 µM; with SF-295 CNS, greater than 89.1 µM; in the experiment on SK-OV-3 ovarian it was greater than 100 µM; in the experiment on OVCAR-8 ovarian it was greater than 100 µM; in the experiment with T-47D breast, greater than 100 µM. For the same molecule, the TGI with SNB-19 CNS, with UACC-257 melanoma, in the experiment on SW-620 colon, in the experiment with OVCAR-5 ovarian, in the experiment on BT-549 breast and in the experiment with DU-145 prostate was greater than 100 µM throughout. Also, the TGI in the experiment with NCI/ADR-RES ovarian, in the experiment with MALME-3M melanoma, with HOP-92 NSCLC and in the experiment with 786-0 renal was greater than 100 µM each time.
Regarding `C/C(N)=N/OCc1nc(C)no1`, the TGI in the experiment with MOLT-4 leukemia, in the experiment on NCI-H23 lung, in the experiment on SF-295 CNS, in the experiment on COLO 205 colon, with SK-OV-3 ovarian and in the experiment on OVCAR-8 ovarian was greater than 100 µM throughout. For the same molecule, the TGI with T-47D breast, in the experiment on SNB-19 CNS, in the experiment with UACC-257 melanoma, in the experiment with SW-620 colon, in the experiment with BT-549 breast and with DU-145 prostate was greater than 100 µM throughout. Moreover, the TGI in the experiment with NCI/ADR-RES ovarian, in the experiment with RPMI-8226 leukemia, with NCI-H522 lung and in the experiment on 786-0 renal was greater than 100 µM throughout.
With `Cc1nc(N(C(C)C)C(C)C)c(C(C)C)o1`, the TGI with MOLT-4 leukemia, in the experiment on NCI-H23 lung, in the experiment with SF-295 CNS, with COLO 205 colon, with SK-OV-3 ovarian and in the experiment with OVCAR-8 ovarian was greater than 100 µM each time. Also, the TGI with T-47D breast, in the experiment on SNB-19 CNS, in the experiment on UACC-257 melanoma, in the experiment on SW-620 colon, in the experiment on OVCAR-5 ovarian and in the experiment on BT-549 breast was greater than 100 µM throughout. For the same molecule, the TGI in the experiment on DU-145 prostate, with NCI/ADR-RES ovarian, with MALME-3M melanoma, with NCI-H522 lung, in the experiment with HOP-92 NSCLC and in the experiment on 786-0 renal was greater than 100 µM each time.
In the case of `C=C(CCC=C(C)C)C1CC=C(C)CC1` (stereo not drawn), the TGI in the experiment with NCI-H23 lung was 34.9 µM; with SF-295 CNS it was 45 µM; with COLO 205 colon it was 71.5 µM; in the experiment on SK-OV-3 ovarian it was greater than 100 µM; in the experiment with OVCAR-8 ovarian it was greater than 100 µM; with T-47D breast it was greater than 100 µM. The TGI is greater than 100 µM in the experiment with SNB-19 CNS; greater than 100 µM in the experiment with UACC-257 melanoma; 53.6 µM with SW-620 colon; greater than 100 µM in the experiment on OVCAR-5 ovarian; greater than 100 µM in the experiment with BT-549 breast; 71.1 µM in the experiment on DU-145 prostate. In addition, the TGI was greater than 100 µM in the experiment with NCI/ADR-RES ovarian, greater than 100 µM in the experiment with MALME-3M melanoma, 32.3 µM in the experiment on NCI-H522 lung and 35.7 µM in the experiment on 786-0 renal.
In the case of `O=c1cc(CNC2CC3CCC2C3)[nH]c(=O)[nH]1` (stereo not drawn), the TGI in the experiment on MOLT-4 leukemia, with NCI-H23 lung, in the experiment on SF-295 CNS, with COLO 205 colon, in the experiment on SK-OV-3 ovarian and in the experiment with OVCAR-8 ovarian was greater than 100 µM in each case. Besides, the TGI in the experiment on T-47D breast, in the experiment on SNB-19 CNS, in the experiment with UACC-257 melanoma, with SW-620 colon, in the experiment on OVCAR-5 ovarian and in the experiment with BT-549 breast was greater than 100 µM in each case. For the same molecule, the TGI with DU-145 prostate, in the experiment with NCI/ADR-RES ovarian, in the experiment with RPMI-8226 leukemia, with MALME-3M melanoma, in the experiment with NCI-H522 lung and with 786-0 renal was greater than 100 µM throughout.
For the molecule `CCC(=O)C(CCN1CCC(N2C(=O)C(CCC#N)c3ccccc32)CC1)(c1ccccc1)c1ccccc1` (stereo not drawn), the TGI came out at 25 µM with MOLT-4 leukemia; 48.8 µM in the experiment on NCI-H23 lung; 26.1 µM in the experiment on SF-295 CNS; 21.4 µM in the experiment on COLO 205 colon; 37.9 µM with SK-OV-3 ovarian; 23.6 µM in the experiment on OVCAR-8 ovarian. In addition, the TGI in the experiment on T-47D breast was 29.3 µM; with SNB-19 CNS it was 32 µM; in the experiment on UACC-257 melanoma, 26.7 µM; with SW-620 colon it was 24 µM; with OVCAR-5 ovarian, 67.7 µM; in the experiment with BT-549 breast, 26.2 µM. For the same molecule, the TGI amounted to 26.5 µM in the experiment on DU-145 prostate; 25 µM in the experiment on NCI/ADR-RES ovarian; 21.8 µM in the experiment on RPMI-8226 leukemia; 24.8 µM in the experiment with MALME-3M melanoma; 25.8 µM with NCI-H522 lung; 24.7 µM in the experiment on 786-0 renal.
Turning to `CCC(C)N1CN(c2ccccc2)C2(CCN(CCCSc3ccc(F)cc3)CC2)C1=O` (stereo not drawn), the TGI with MOLT-4 leukemia is 13.3 µM; in the experiment with NCI-H23 lung it was 16 µM; in the experiment on SF-295 CNS, 5.57 µM; in the experiment with COLO 205 colon, 3.47 µM; in the experiment with SK-OV-3 ovarian, 19.1 µM; in the experiment with OVCAR-8 ovarian it was 21.5 µM. Further, the TGI with T-47D breast turned out to be 10.2 µM; in the experiment with SNB-19 CNS, 19.7 µM; in the experiment with UACC-257 melanoma, 7.37 µM; in the experiment with SW-620 colon it was 17.3 µM; in the experiment on OVCAR-5 ovarian, 7.06 µM; in the experiment on BT-549 breast, 6.99 µM. Further, the TGI was 10.1 µM in the experiment with DU-145 prostate; 11 µM in the experiment on NCI/ADR-RES ovarian; 5.72 µM in the experiment on RPMI-8226 leukemia; 15.8 µM with MALME-3M melanoma; 18.9 µM in the experiment on NCI-H522 lung; 7.88 µM in the experiment with 786-0 renal.
As to `C[C@@]1(OC(=O)c2cc([N+](=O)[O-])cc([N+](=O)[O-])c2)C[C@@H]2CCCC[C@@H]21`, the TGI with MOLT-4 leukemia, with NCI-H23 lung, in the experiment on SF-295 CNS, in the experiment on COLO 205 colon, with SK-OV-3 ovarian and with OVCAR-8 ovarian was greater than 100 µM throughout. Besides, the TGI in the experiment with T-47D breast, in the experiment on SNB-19 CNS, in the experiment on UACC-257 melanoma, with SW-620 colon, in the experiment with OVCAR-5 ovarian and in the experiment on BT-549 breast was greater than 100 µM throughout. Besides, the TGI with DU-145 prostate, in the experiment on NCI/ADR-RES ovarian, in the experiment on RPMI-8226 leukemia, in the experiment with MALME-3M melanoma, with NCI-H522 lung and with 786-0 renal was greater than 100 µM in each case.
